Data from patent publication US8399214B2 (Evonik Degussa GmbH, priority 2005, dated 2013).
Where “and” joins values, the source holds several entries; their conditions need not be identical. Equal entries are not always repeated. Where two headings read alike, the source gives them in different places.

Columns and labels:
[1] = system: C. glutamicum OM246C (ΔmetE, ΔmetH); assay type: cell-based; settings: XAD4, 24 hours at 30° C.
Procedure: (§1) To each test tube 100 μl of a sterile suspension of XAD4 in water (50% v/v) was added.

[2] = system: C. glutamicum OM101C (ΔmetF, ΔmetB); assay type: cell-based; settings: XAD4, 24 hours at 30° C.
Procedure: as §1

C. glutamicum OM246C = experiment: Shake flask study in molasses medium with XAD4, amino acid production with DMDS; assay type: cell-based; settings: 80 μl DMDS (0.4% v/v), XAD4, 30° C.
Procedure: (§2) Samples were taken from the medium and assayed for amino acid content. […] (AGILENT). A pre-column derivatization of the sample with ortho-phthalaldehyde allowed the quantification of produced amino acids after separation on a Hypersil AA-column (AGILENT).
(§3) A shake flask experiment was performed where OM246C was compared to M2014. […] Thus, the production of methionine occurs from the conversion of O-acetyl-homoserine directly to methionine, bypassing homocysteine.

C. glutamicum M2014 [3] = experiment: as above; assay type: cell-based; settings: strain 2014, 80 μl DMDS (0.4% v/v), XAD4, 30° C.
Procedure: as §2, §3

[4] = system: C. glutamicum OM63 (ΔmetF); assay type: cell-based; settings: 36 hours at 30° C.
Source text: (§4) M2014 was transformed with plasmid pOM86 (FIG. 9) (SEQ ID NO:8) to yield a “Campbell in” strain. The “Campbell in” strain was then “Cambelled out” to yield a “Campbell out” strain named OM63.

[5] = system: C. glutamicum OM158 (ΔmetF, ΔmetY); settings: DMDS 0.2%, XAD4, 60 hours at 30° C.
Procedure: (§7) A test tube experiment was performed with M2014 derivatives that contain different combinations of deletions of metY, metB, and metF. […] The inoculum was approximately 5×10^3 cells per tube. Cells were grown at 30° C. in a platform shaker for 60 hours, and cell densities were measured at OD600.

[6] = system: C. glutamicum M2014 (parent); experiment: Test tube growth in methionine-free medium, DMDS added directly; settings: for Optical densities at 600 nm: M2014, 36 hours at 30° C.
Source text: as §4

[7] = system: C. glutamicum OM63 (ΔmetF)
Procedure: (§5) To this end, test tube experiments using 5 ml of medium were performed on OM63 and M2014.
as §1

[8] = system: E. coli RY714B (metE::Tn10, ΔmetH); experiment: Growth on methionine free agar with DMDS in a centre well; assay type: cell-based; settings: 50 microliters DMDS in well, 30° C.
Procedure: The selection was for resistance to kanamycin sulfate at 25 mg/L on rich medium […] agar).

[9] = system: C. glutamicum OM246C (ΔmetH, ΔmetE); assay type: cell-based; settings: 24 hours at 30° C.
Source text: (§6) Other possible delivery systems include synthetic oils, organic solvents, chloro-carbons, fluoro-carbons, or chloro-fluoro-carbons.

OM101 (ΔmetB,ΔmetF) = experiment: Lawn growth on methionine-free agar plates with liquid or gaseous DMDS; assay type: cell-based, C. glutamicum; settings: for killing zone: 48-60 hours
Procedure: Control plates received the lawn of cells, but no DMDS. The plates were placed together in a sealed polypropylene plastic box that was slightly bigger than the stack of plates and incubated at 30° C. for 48-60 hours. […] Normally, when a required nutrient is placed in the middle of a lawn that is auxotrophic for the nutrient, a gradient of growth is seen, with the most rapid growth occurring closest to the nutrient.
The plates were incubated at 30° C. enclosed in an airtight plastic box. […] This could be accomplished by evaporating or boiling DMDS and pumping the DMDS vapor into the fermentation vessel, or by bubbling air or oxygen through liquid DMDS on its route to the fermentation vessel.

C. glutamicum M2014 [10] = experiment: Test tube growth in methionine-free medium with canola oil as DMDS delivery system; assay type: cell-based; settings: MF + Canola Oil + 0.2% DMDS, 24 hours at 30° C.
Source text: as §6

C. glutamicum M2014 [11] = experiment: Test tube growth in methionine-free medium with Amberlite XAD4 as DMDS delivery system
Procedure: as §5, §1

[12] = system: C. glutamicum OM246C (ΔmetH, ΔmetE); settings: for Optical densities at 600 nm: OM246C, 24 hours at 30° C.
Source text: as §6

C. glutamicum M2014 [13] = experiment: Test tube growth in methionine-free medium with mineral oil as DMDS delivery system; settings: for Optical densities at 600 nm: 24 hours at 30° C.
Source text: as §6

[14] = system: C. glutamicum OM101 (ΔmetF, ΔmetB); settings: DMDS 0.2%, XAD4, 60 hours at 30° C.
Procedure: as §7

## CSSC [DMDS, dimethyl disulfide]
[1]; DMDS 0.1%
  Optical densities at 600 nm: 4.3 and 4.5
[1]; DMDS 0.2%
  Optical densities at 600 nm: 4.2 and 3.8
[1]; DMDS 0.3%
  Optical densities at 600 nm: 3.3 and 3.6
[1]; DMDS 0.4%
  Optical densities at 600 nm: 3.6 and 3.2
[1]; DMDS 0.5%
  Optical densities at 600 nm: 3.1 and 2.4
[2]; DMDS 0.1%
  Optical densities at 600 nm: 2.5 and 2.7
[2]; DMDS 0.2%
  Optical densities at 600 nm: 3.1 and 3.9
[2]; DMDS 0.3%
  Optical densities at 600 nm: 1.6 and 0.8
[2]; DMDS 0.4%
  Optical densities at 600 nm: 0.05 and 0.03
[2]; DMDS 0.5%
  Optical densities at 600 nm: 0.02 and 0.01
C. glutamicum OM246C
  Gly + Hse: 1.7 g/L and 1.3 g/L
  Ile: 0.0 g/L
  Lys: 3.2 g/L and 3.4 g/L
  OD600: 32 and 35
  O—Ac-hse: 4.6 g/L and 4.3 g/L
C. glutamicum M2014 [3]
  Gly + Hse: 1.0 g/L and 1.4 g/L
  Ile: 0.0 g/L
  Lys: 2.5 g/L
  OD600: 38 and 30
  O—Ac-hse: 4.3 g/L and 3.6 g/L
[4]; MF + 0.02% DMDS
  Optical densities at 600 nm: 5.4
[4]; MF + 0.04% DMDS
  Optical densities at 600 nm: 5.9
[4]; MF + 0.06% DMDS
  Optical densities at 600 nm: 5.2
[4]; MF + 0.08% DMDS
  Optical densities at 600 nm: 0.2
[4]; MF + 0.1% DMDS
  Optical densities at 600 nm: 0.0
[5]
  OD600: 0.0
[6]; MF + 0.02% DMDS
  Optical densities at 600 nm: 5.5
[6]; MF + 0.04% DMDS
  Optical densities at 600 nm: 5.3
[6]; MF + 0.06% DMDS
  Optical densities at 600 nm: 6.6
[6]; MF + 0.08% DMDS
  Optical densities at 600 nm: 0.0
[6]; MF + 0.1% DMDS
  Optical densities at 600 nm: 0.0
[6]; added directly to liquid cultures
  amount of DMDS tolerated by the cells: less than 0.06%
[6]; added directly to liquid cultures of C. glutamicum
  amount at which DMDS is toxic: greater than 0.06%
[7]; DMDS 0.1%, XAD4, 24 hours at 30° C.
  Optical densities at 600 nm: 3.0 and 3.3
[7]; DMDS 0.1%, XAD4, 42 hours at 30° C.
  Optical densities at 600 nm: 6.3
[7]; DMDS 0.2%, XAD4, 24 hours at 30° C.
  Optical densities at 600 nm: 1.7 and 3.4
[7]; DMDS 0.2%, XAD4, 42 hours at 30° C.
  Optical densities at 600 nm: 6.5
[7]; DMDS 0.2%, XAD4, 60 hours at 30° C.
  OD600: 1.2 and 1.3
[7]; DMDS 0.3%, XAD4, 24 hours at 30° C.
  Optical densities at 600 nm: 3.9 and 2.1
[7]; DMDS 0.3%, XAD4, 42 hours at 30° C.
  Optical densities at 600 nm: 4.9
[7]; DMDS 0.4%, XAD4, 24 hours at 30° C.
  Optical densities at 600 nm: 1.5 and 1.6
[7]; DMDS 0.4%, XAD4, 42 hours at 30° C.
  Optical densities at 600 nm: 3.6
[7]; DMDS 0.5%, XAD4, 24 hours at 30° C.
  Optical densities at 600 nm: 0.1
[7]; DMDS 0.5%, XAD4, 42 hours at 30° C.
  Optical densities at 600 nm: 1.6
[7]; DMDS with Amberlite XAD4
  maximum amount of DMDS that allowed cell growth: 0.4%
[8]; RY714B transformed with empty vector pCLIK
  growth on methionine free agar with DMDS: neither strain transformed with empty vector pCLIK grew
[8]; RY714B transformed with pH309 or pH357 (metY)
  growth on methionine free agar with DMDS: grew on the plates
[9]; MF + Canola Oil + 0.2% DMDS
  Optical densities at 600 nm: 1.9 and 1.7
[9]; MF + Canola Oil + 0.4% DMDS
  Optical densities at 600 nm: 1.1 and 1.3
[9]; MF + Canola Oil + 0.8% DMDS
  Optical densities at 600 nm: 0.0
OM101 (ΔmetB,ΔmetF); 50 μl liquid DMDS in polypropylene cap, reaches cells only through gaseous state, 30° C., two days
  growth of OM101 lawn: complete bacterial lawn
OM101 (ΔmetB,ΔmetF); 50 μl liquid DMDS placed into a well in the agar, 30° C.
  killing zone: no killing zone
OM101 (ΔmetB,ΔmetF); 50 μl liquid DMDS spotted directly on the lawn, 30° C.
  killing zone: approximately 30 mm
OM101 (ΔmetB,ΔmetF); gas state
  toxicity of DMDS in the gas state to OM101: not toxic
C. glutamicum M2014 [10]
  Optical densities at 600 nm: 1.5 and 1.4
C. glutamicum M2014 [11]; M2014, DMDS 0.1%, XAD4, 24 hours at 30° C.
  Optical densities at 600 nm: 4.4 and 4.3
C. glutamicum M2014 [11]; M2014, DMDS 0.1%, XAD4, 42 hours at 30° C.
  Optical densities at 600 nm: 6.6
C. glutamicum M2014 [11]; M2014, DMDS 0.2%, XAD4, 24 hours at 30° C.
  Optical densities at 600 nm: 4.0 and 4.2
C. glutamicum M2014 [11]; M2014, DMDS 0.2%, XAD4, 42 hours at 30° C.
  Optical densities at 600 nm: 6.9
C. glutamicum M2014 [11]; M2014, DMDS 0.2%, XAD4, 60 hours at 30° C.
  OD600: 4.5 and 3.6
C. glutamicum M2014 [11]; M2014, DMDS 0.3%, XAD4, 24 hours at 30° C.
  Optical densities at 600 nm: 3.8 and 3.5
C. glutamicum M2014 [11]; M2014, DMDS 0.3%, XAD4, 42 hours at 30° C.
  Optical densities at 600 nm: 7.3
C. glutamicum M2014 [11]; M2014, DMDS 0.4%, XAD4, 24 hours at 30° C.
  Optical densities at 600 nm: 1.3 and 2.3
C. glutamicum M2014 [11]; M2014, DMDS 0.4%, XAD4, 42 hours at 30° C.
  Optical densities at 600 nm: 7.3
C. glutamicum M2014 [11]; M2014, DMDS 0.5%, XAD4, 42 hours at 30° C.
  Optical densities at 600 nm: 5.5
C. glutamicum M2014 [11]; M2014, DMDS with Amberlite XAD4
  maximum amount of DMDS that allowed cell growth: 0.4%
C. glutamicum M2014 [11]; in the presence of Amberlite XAD4 versus direct addition
  increase of the amount of DMDS that can be added before toxicity is observed: 5 fold
[12]; DMDS in mineral oil, strain printed as OM63
  maximum amount of DMDS that allowed cell growth: 0.4%
[12]; MF + Mineral Oil + 0.2% DMDS
  Optical densities at 600 nm: 1.1 and 1.6
[12]; MF + Mineral Oil + 0.4% DMDS
  Optical densities at 600 nm: 1.2 and 1.5
[12]; MF + Mineral Oil + 0.8% DMDS
  Optical densities at 600 nm: 0.0
[12]; MF + Mineral Oil + 1.2% DMDS
  Optical densities at 600 nm: 0.0
C. glutamicum M2014 [13]; DMDS in mineral oil
  maximum amount of DMDS that allowed cell growth: 0.8%
C. glutamicum M2014 [13]; MF + Mineral Oil + 0.2% DMDS
  Optical densities at 600 nm: 1.4 and 1.2
C. glutamicum M2014 [13]; MF + Mineral Oil + 0.4% DMDS
  Optical densities at 600 nm: 1.5 and 1.3
C. glutamicum M2014 [13]; MF + Mineral Oil + 0.8% DMDS
  Optical densities at 600 nm: 1.4 and 1.7
C. glutamicum M2014 [13]; MF + Mineral Oil + 1.2% DMDS
  Optical densities at 600 nm: 0.0
[14]
  OD600: 2.4 and 1.8
